Results published in article PMC12155096 (International Journal of Molecular Sciences, 2025).
Counter-ions that a name gives are not always drawn. Like-named read-outs stand apart in the source and are kept apart here.

Experiments:
[1] = target: T1, human CYP2C19 (Homo sapiens, UniProt P33261); assay: biochemical
[2] = target: T2, human CYP2C9 (Homo sapiens, UniProt P11712); assay: biochemical
[3] = target: T3, human CYP1A2 (Homo sapiens, UniProt P05177); assay: biochemical
T3 sequence (P05177 1-516): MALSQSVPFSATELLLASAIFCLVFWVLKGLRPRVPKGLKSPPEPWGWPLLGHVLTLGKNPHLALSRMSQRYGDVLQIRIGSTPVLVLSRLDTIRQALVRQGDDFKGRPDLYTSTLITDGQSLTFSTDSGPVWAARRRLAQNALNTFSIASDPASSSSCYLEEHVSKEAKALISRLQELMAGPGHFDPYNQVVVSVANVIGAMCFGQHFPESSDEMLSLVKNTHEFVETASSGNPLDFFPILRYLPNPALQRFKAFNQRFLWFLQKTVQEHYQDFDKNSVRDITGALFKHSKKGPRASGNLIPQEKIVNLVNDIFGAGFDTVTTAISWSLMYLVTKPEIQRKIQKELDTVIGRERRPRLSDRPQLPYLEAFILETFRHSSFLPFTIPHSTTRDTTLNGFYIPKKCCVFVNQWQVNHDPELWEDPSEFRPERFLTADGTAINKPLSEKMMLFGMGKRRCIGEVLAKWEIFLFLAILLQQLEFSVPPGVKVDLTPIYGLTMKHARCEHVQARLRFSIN

[4] = target: T4, CYP3A4 (Homo sapiens, UniProt P08684); assay: biochemical
T4 sequence (P08684 whole entry): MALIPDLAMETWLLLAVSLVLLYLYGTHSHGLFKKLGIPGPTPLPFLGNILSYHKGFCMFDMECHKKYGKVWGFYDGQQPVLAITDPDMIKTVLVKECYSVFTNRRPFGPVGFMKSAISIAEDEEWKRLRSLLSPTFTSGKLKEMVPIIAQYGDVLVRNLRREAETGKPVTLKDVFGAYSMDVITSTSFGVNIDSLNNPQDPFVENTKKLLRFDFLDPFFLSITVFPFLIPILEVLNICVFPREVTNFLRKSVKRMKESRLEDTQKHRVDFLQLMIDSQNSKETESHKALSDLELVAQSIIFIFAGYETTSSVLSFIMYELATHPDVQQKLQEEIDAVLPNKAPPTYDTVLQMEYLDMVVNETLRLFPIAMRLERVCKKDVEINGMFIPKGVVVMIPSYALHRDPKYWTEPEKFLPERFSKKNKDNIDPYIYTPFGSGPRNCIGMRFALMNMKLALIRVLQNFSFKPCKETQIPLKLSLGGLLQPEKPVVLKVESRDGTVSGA

[5] = target: Photinus pyralis (firefly) luciferase (Photinus pyralis, UniProt P08659); assay: biochemical; type: biochemical
Sequence of Photinus pyralis (firefly) luciferase (P08659 whole entry): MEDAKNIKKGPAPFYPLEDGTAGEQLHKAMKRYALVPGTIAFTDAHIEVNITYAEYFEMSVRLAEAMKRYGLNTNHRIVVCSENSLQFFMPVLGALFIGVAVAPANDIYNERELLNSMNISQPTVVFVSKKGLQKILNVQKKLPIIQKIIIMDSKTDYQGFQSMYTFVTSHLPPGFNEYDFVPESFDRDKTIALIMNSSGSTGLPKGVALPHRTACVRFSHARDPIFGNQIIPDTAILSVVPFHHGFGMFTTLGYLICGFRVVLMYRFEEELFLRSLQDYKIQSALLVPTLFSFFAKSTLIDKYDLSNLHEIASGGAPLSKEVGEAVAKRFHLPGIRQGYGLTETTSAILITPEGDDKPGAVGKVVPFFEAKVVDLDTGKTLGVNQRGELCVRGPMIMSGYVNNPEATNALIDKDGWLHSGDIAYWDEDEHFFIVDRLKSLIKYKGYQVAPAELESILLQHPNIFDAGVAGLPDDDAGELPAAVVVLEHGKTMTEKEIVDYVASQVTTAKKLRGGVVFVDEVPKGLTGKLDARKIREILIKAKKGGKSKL

[6] = target: human CYP2D6 (Homo sapiens, UniProt P10635)
Sequence of human CYP2D6 (P10635 whole entry): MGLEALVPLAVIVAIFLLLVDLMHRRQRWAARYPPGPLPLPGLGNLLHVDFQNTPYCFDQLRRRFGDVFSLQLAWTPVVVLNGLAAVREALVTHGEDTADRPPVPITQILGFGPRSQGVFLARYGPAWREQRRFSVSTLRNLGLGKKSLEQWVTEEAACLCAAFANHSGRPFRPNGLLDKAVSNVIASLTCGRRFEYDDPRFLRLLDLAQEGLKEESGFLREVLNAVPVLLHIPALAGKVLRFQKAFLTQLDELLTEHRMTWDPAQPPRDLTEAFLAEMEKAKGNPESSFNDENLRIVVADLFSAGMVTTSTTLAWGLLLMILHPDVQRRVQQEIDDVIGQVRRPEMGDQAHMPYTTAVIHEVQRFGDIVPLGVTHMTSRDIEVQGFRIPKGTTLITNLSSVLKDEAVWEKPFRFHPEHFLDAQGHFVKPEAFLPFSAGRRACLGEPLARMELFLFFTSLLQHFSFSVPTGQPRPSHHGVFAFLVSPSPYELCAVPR

[7] = target: T4, CYP3A4
[8] = target: T2, human CYP2C9; conditions: for CYP2C9 Efficacy (in parenthesis): human
[9] = target: T3, human CYP1A2
[10] = target: T1, human CYP2C19; conditions: for CYP2C19 Efficacy (in parenthesis): human
[11] = CYP2C19 IC50 (half-maximal inhibitory concentration)
[12] = CYP2C9 IC50 (half-maximal inhibitory concentration)
[13] = CYP1A2 IC50 (half-maximal inhibitory concentration)
[14] = CYP3A4 IC50 (half-maximal inhibitory concentration)
[15] = CYP2C9 AC50 (half-maximal activity concentration)
[16] = CYP3A4 AC50 (half-maximal activity concentration)
[17] = CYP2C19 AC50 (half-maximal activity concentration)

T1 sequence (P33261 whole entry): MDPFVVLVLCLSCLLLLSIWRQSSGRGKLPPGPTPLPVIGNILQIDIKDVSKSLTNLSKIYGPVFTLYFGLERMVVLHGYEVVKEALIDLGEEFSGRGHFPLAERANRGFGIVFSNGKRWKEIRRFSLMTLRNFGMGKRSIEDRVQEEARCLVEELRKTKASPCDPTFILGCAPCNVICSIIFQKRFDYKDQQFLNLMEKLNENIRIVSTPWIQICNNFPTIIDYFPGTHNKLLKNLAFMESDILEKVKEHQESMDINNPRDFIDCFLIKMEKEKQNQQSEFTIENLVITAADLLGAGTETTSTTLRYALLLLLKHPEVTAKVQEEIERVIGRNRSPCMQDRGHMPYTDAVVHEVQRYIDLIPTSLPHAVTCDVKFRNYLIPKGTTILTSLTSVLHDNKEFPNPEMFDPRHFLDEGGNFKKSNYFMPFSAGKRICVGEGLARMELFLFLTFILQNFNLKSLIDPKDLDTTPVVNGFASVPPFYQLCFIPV
T2 sequence (P11712 whole entry): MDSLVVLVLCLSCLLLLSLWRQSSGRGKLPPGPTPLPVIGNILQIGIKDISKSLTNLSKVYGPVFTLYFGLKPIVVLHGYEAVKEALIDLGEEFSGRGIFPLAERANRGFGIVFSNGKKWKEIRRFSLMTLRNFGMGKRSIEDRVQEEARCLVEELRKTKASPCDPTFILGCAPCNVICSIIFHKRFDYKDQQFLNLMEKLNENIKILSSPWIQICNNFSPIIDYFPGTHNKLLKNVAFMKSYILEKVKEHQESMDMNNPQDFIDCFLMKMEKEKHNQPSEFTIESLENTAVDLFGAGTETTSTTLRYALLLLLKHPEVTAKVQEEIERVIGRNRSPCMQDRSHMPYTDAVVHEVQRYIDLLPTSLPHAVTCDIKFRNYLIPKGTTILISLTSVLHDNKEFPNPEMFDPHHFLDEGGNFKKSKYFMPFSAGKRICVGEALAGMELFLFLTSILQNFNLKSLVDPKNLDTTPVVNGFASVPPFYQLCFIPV

COc1ccc(-c2ccccc2)cc1NNC(=O)OC(C)C [Bifenazate]
IC50 [1, 11]: 0.49 µM | IC50 [2, 12]: 2.33 µM | IC50 [3, 13]: 4.75 µM | IC50 [4, 14]: 1.51 µM | Luciferase IC50 (half-maximal inhibitory concentration) [5]: Inactive

CCOP(=S)(OCC)Oc1ccc(Cl)cc1Cl [Dichlofenthion]
IC50 [1, 11]: 0.44 µM | CYP2D6 IC50 (half-maximal inhibitory concentration) [6]: Inactive | IC50 [2, 12]: 3.56 µM | IC50 [3, 13]: 3.07 µM | CYP3A4 Efficacy (in parenthesis) [7]: 2.22 ± 0.62 (-82 ± 5) % | IC50 [4, 14]: 2.22 µM | CYP2C9 Efficacy (in parenthesis) [8]: 3.56 ± 0 (-100 ± 3) % | CYP1A2 Efficacy (in parenthesis) ([9]; human): 3.07 ± 0.42 (-101 ± 5) % | Luciferase IC50 (half-maximal inhibitory concentration) [5]: Inactive | CYP2C19 Efficacy (in parenthesis) [10]: 0.44 ± 0.11 (-121 ± 28) %

O=S1(=O)OCC2C(CO1)C1(Cl)C(Cl)=C(Cl)C2(Cl)C1(Cl)Cl (stereo not shown) [Endosulfan sulfate]
IC50 ([1]; CYP2C19 IC50): 2.25 µM | CYP2D6 IC50 [6]: Inactive | IC50 ([2]; CYP2C9 IC50): 18.7 µM | IC50 ([3]; CYP1A2 IC50): 47.5 µM | IC50 ([4]; CYP3A4 IC50): 0.22 µM | IC50 [5]: 53.2 µM

CCN(Cc1c(F)cccc1Cl)c1c([N+](=O)[O-])cc(C(F)(F)F)cc1[N+](=O)[O-] [Flumetralin]
IC50 [1, 11]: 2.22 µM | CYP2D6 IC50 (half-maximal inhibitory concentration) [6]: Inactive | IC50 [2]: 7.39 µM | IC50 [4, 14]: 0.38 µM | CYP1A2 IC50 (half-maximal inhibitory concentration) [9]: Inactive | Luciferase IC50 (half-maximal inhibitory concentration) [5]: Inactive

CO/N=C(/C(=O)OC)c1ccccc1COc1ccccc1C [Kresoxim-methyl]
IC50 [1, 11]: 0.51 µM | CYP2D6 IC50 (half-maximal inhibitory concentration) [6]: Inactive | IC50 [2, 12]: 19.6 µM | IC50 [3, 13]: 22 µM | IC50 [4, 14]: 9.48 µM | Luciferase IC50 (half-maximal inhibitory concentration) [5]: Inactive

CC(C)(C(=O)c1cccnc1)c1cccnc1 [Metyrapone]
CYP2D6 IC50 (half-maximal inhibitory concentration) [6]: Inactive | CYP3A4 Efficacy (in parenthesis) [7]: 0.57 ± 0.16 (-62 ± 5) % | IC50 [4, 14]: 0.57 µM | CYP2C9 IC50 (half-maximal inhibitory concentration) [8]: Inactive | CYP1A2 IC50 (half-maximal inhibitory concentration) [9]: Inactive | Luciferase IC50 (half-maximal inhibitory concentration) [5]: Inactive | CYP2C19 IC50 (half-maximal inhibitory concentration) [10]: Inactive

CCN(CC)C(=O)C(C)Oc1cccc2ccccc12 (stereo not shown) [Napropamide]
IC50 [1, 11]: 0.66 µM | CYP2D6 IC50 (half-maximal inhibitory concentration) [6]: Inactive | IC50 [2, 12]: 29.9 µM | IC50 [3, 13]: 25 µM | IC50 [4, 14]: 7.56 µM | Luciferase IC50 (half-maximal inhibitory concentration) [5]: Inactive

Oc1ccc2[nH]cc(CCCCN3CC=C(c4ccccc4)CC3)c2c1 [Roxindole]
AC50 [2, 15]: 21.2 µM | IC50 ([2]; CYP2C9 IC50): 21.2 µM | AC50 ([3]; CYP1A2 AC50 (half-maximal activity concentration)): 22.4 µM | IC50 ([3]; CYP1A2 IC50): 22.4 µM | CYP3A4 IC50 [7]: 1.91 ± 0.48 (802 ± 30) µM | AC50 [4, 16]: 1.91 µM | Luciferase IC50 [5]: Inactive | CYP2C19 IC50 [10]: Inactive

O[Si](c1ccccc1)(c1ccccc1)c1ccccc1 [Triphenylsilanol]
AC50 [1, 17]: 0.57 µM | IC50 [1, 11]: 0.57 µM | CYP2D6 IC50 (half-maximal inhibitory concentration) [6]: Inactive | AC50 [2, 15]: 0.53 µM | IC50 [2, 12]: 0.53 µM | CYP3A4 IC50 (half-maximal inhibitory concentration) [7]: 13.71 ± 1.89 (172 ± 26) µM | AC50 [4, 16]: 13.7 µM | CYP1A2 AC50 (half-maximal activity concentration) [9]: Inconclusive inhibitor | CYP1A2 IC50 (half-maximal inhibitory concentration) [9]: Inactive | Luciferase IC50 (half-maximal inhibitory concentration) [5]: Inactive

COC(=O)C1=C(C)NC(C)=C(C(=O)OCCc2ccc(N3CCN(C(c4ccccc4)c4ccccc4)CC3)cc2)C1c1cccc([N+](=O)[O-])c1 (stereo not shown) [Watanidipine]
IC50 [1]: 8.39 µM | CYP2D6 IC50 (half-maximal inhibitory concentration) [6]: Inactive | IC50 [2]: 0.49 µM | IC50 [3]: 14.6 µM | IC50 [4]: 2.38 µM | Luciferase IC50 (half-maximal inhibitory concentration) [5]: Inactive

O=c1c2ccccc2oc2ccccc12 [Xanthone]
AC50 [1]: 29.7 µM | IC50 [1]: 29.7 µM | CYP2D6 IC50 (half-maximal inhibitory concentration) [6]: Inactive | AC50 [2]: 35.7 µM | IC50 [2]: 35.7 µM | AC50 [3]: 0.5 µM | IC50 [3]: 0.5 µM | AC50 [4]: 14.5 µM | IC50 [5]: 23.6 µM

Clc1ccc(C(c2ccccc2Cl)C(Cl)(Cl)Cl)cc1 (stereo not shown) [o,p'-DDT]
AC50 [1, 17]: 0.35 µM | IC50 [1, 11]: 0.35 µM | CYP2D6 IC50 (half-maximal inhibitory concentration) [6]: Inactive | AC50 [2, 15]: 10.9 µM | IC50 [2, 12]: 10.9 µM | CYP3A4 Efficacy (in parenthesis) [7]: 11.59 ± 3.23 (99 ± 19) % | CYP3A4 IC50 (half-maximal inhibitory concentration) [7]: 11.59 ± 3.23 (99 ± 19) µM | AC50 [4, 16]: 11.6 µM | CYP2C9 Efficacy (in parenthesis) [8]: 10.87 ± 3.7 (-95 ± 6) % | CYP1A2 IC50 (half-maximal inhibitory concentration) [9]: Inactive | Luciferase IC50 (half-maximal inhibitory concentration) [5]: Inactive | CYP2C19 Efficacy (in parenthesis) [10]: 0.35 ± 0.15 (-129 ± 3) %
